Values quoted from earlier work in US20250120913A1, “STABLE QUERCETIN NANOSUSPENSIONS” (Sirona Biosciences Inc., priority 2023, published 2025).

Conditions: depending on the pH level

- aqueous solubility: 1.5 to 12.5 µg/mL
Compound: O=c1c(O)c(-c2ccc(O)c(O)c2)oc2cc(O)cc(O)c12 [Quercetin]
